# Measured values reported in paper PMC7447640, “Synthesis, antioxidant properties and neuroprotection of α-phenyl-tert-butylnitrone derived HomoBisNitrones in in vitro and in vivo ischemia models” (Scientific Reports, 2020).
# Molecular target: T1, soybean lipoxygenase (LOX) (Glycine max, UniProt P08170)
# T1 construct: gene LOX1.1
# T1 sequence (P08170 1-839): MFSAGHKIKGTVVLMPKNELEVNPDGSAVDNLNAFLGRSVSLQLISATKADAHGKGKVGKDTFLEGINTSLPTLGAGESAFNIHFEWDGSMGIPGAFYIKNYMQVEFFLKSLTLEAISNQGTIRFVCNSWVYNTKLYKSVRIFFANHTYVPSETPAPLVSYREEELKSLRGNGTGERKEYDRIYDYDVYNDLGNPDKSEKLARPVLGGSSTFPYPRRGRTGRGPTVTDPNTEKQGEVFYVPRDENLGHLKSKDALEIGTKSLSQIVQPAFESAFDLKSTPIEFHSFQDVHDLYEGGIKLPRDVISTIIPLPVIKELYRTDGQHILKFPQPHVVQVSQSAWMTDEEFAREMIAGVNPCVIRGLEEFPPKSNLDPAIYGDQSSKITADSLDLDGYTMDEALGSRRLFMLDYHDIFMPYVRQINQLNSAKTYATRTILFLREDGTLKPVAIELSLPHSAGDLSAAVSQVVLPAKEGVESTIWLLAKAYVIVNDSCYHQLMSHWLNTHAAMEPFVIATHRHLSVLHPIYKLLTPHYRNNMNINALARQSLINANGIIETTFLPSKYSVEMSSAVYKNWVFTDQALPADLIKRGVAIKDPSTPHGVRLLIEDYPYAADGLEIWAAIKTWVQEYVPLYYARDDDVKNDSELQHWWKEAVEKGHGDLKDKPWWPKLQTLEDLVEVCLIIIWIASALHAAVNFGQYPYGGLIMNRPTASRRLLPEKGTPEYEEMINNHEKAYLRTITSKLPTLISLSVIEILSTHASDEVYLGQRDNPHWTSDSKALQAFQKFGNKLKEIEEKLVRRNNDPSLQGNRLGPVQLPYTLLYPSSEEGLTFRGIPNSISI
# Test: soybean lipoxygenase, linoleate oxidation at […] nm
# Format: biochemical
# Settings: read-out: LOX inhibition (IC50 [μM]/%)
row,IC50 [µM],Structure (SMILES)
1,60,"C/[N+]([O-])=C/c1ccccc1/C=[N+](/C)[O-] [HBN7, (1Z,1′Z)-1,1′-(1,2-Phenylene)bis(N-methylmethanimineoxide)]"
2,57.5,"CC(C)(C)/[N+]([O-])=C/c1ccccc1/C=[N+](\[O-])C(C)(C)C [HBN8, (1Z,1′Z)-1,1′-(1,2-Phenylene)bis(N-tert-butylmethanimineoxide)]"
3,85,"[O-]/[N+](=C\c1ccccc1/C=[N+](\[O-])Cc1ccccc1)Cc1ccccc1 [HBN9, (1Z,1′Z)-1,1′-(1,2-Phenylene)bis(N-benzylmethanimineoxide)]"
